Tests used:
[1] = target: T1, factor Xa (Homo sapiens, UniProt P00742); assay: Factor Xa-inhibitory activity of the potential inhibitors in plasma samples; format: biochemical; conditions: citrate plasma (Octapharma); factor X activated by rattlesnake toxin (RVV); ChromozymX chromogenic substrate, 405 nm
T1 construct: tissue Octapharma; host or cells: citrate plasma
Protocol: a.4) Determination of the Factor Xa-Inhibitory Activity of the Potential Inhibitors in Plasma Samples
To determine the inhibition of factor Xa in plasma samples, the factor X present in plasma is activated by a protease from rattlesnake toxin. The factor Xa activity or its inhibition by potential inhibitors is then measured by addition of a chromogenic substrate.
Various concentrations of the substances to be tested are dissolved in dimethyl sulfoxide and diluted with an aqueous refludan solution (10 μg/ml). In clear 96-well plates having a flat bottom, 30 μl of citrate plasma (Octapharma) are mixed with 10 μl of the substance dilution. Then, either 20 μl of a solution of a rattlesnake toxin (Russel viper venom (RVV); RVV reagent: Pentapharm 121-06, final concentration 0.6 mU) in an aqueous calcium chloride solution buffer (final concentration of calcium chloride 0.05 M) or 20 μl of the aqueous calcium chloride solution (final concentration of calcium chloride 0.05 M) without RVV reagent (as reference for an unstimulated sample) are added. After addition of 20 μl of ChromozymX substrate (final concentration 1.6 mmol/l, Bachem L-1565, diluted in water) the samples are measured in a SpectraFluor Reader using a measurement filter of 405 nm each minute over a period of 20 minutes. The IC50 value is determined when about 70% of the maximum signal is reached (about 12 min).

[2] = target: thrombin (Homo sapiens, UniProt P00734); assay: Thrombin-inhibitory activity of the potential inhibitors in plasma samples; format: biochemical; conditions: citrate plasma (Octapharma); ecarin stimulation; fluorogenic thrombin substrate, 360/465 nm
Protocol: a.5) Determination of the Thrombin-Inhibitory Activity of the Potential Inhibitors in Plasma Samples
Various concentrations of the substances to be tested are dissolved in dimethyl sulfoxide and diluted with water.

T1 sequence (P00742 235-488 limits assumed): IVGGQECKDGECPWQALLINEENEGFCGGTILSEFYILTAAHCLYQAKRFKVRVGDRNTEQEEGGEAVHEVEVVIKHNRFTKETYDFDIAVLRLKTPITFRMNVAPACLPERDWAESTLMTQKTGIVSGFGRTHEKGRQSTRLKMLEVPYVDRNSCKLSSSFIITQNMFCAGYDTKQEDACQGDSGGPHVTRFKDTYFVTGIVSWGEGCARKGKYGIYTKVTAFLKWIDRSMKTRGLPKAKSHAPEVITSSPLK
T1 sequence (P00742 41-179 limits assumed): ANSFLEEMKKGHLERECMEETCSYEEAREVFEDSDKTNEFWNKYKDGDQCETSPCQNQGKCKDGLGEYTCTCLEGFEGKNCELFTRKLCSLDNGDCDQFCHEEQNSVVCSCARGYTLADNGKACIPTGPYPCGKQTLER

SMILES | IC50 [2] | IC50 [1]
CCOc1cccn(-c2ccc(N3C[C@H](CNC(=O)c4ccc(Cl)s4)OC3=O)cc2C)c1=O [Example 4, 5-Chloro-N-({(5S)-3-[4-(3-ethoxy-2-oxopyridin-1(2H)-yl)-3-methylphenyl]-2-oxo-1,3-oxazolidin-5-yl}methyl)thiophene-2-carboxamide] | 286 nM | 201 nM
CC(=O)COc1cccn(-c2ccc(N3C[C@H](CNC(=O)c4ccc(Cl)s4)OC3=O)cc2C)c1=O [Example 7, 5-Chloro-N-[((5S)-3-{3-methyl-4-[2-oxo-3-(2-oxopropoxy)pyridin-1(2H)-yl]phenyl}-2-oxo-1,3-oxazolidin-5-yl)methyl]thiophene-2-carboxamide] | 277 nM | 206 nM
Cc1cc(N2C[C@H](CNC(=O)c3ccc(Cl)s3)OC2=O)ccc1-n1cccc(OCC(C)(C)O)c1=O [Example 9, 5-Chloro-N-[((5S)-3-{4-[3-(2-hydroxy-2-methylpropoxy)-2-oxopyridin-1(2H)-yl]-3-methylphenyl}-2-oxo-1,3-oxazolidin-5-yl)methyl]thiophene-2-carboxamide] | 247 nM | 149 nM
Cc1cc(N2C[C@H](CNC(=O)c3ccc(Cl)s3)OC2=O)cc(C)c1-n1cccc(OCCO)c1=O [Example 16, 5-Chloro-N-{[(5S)-3-{4-[3-(2-hydroxyethoxy)-2-oxopyridin-1(2H)-yl]-3,5-dimethylphenyl}-2-oxo-1,3-oxazolidin-5-yl]methyl}thiophene-2-carboxamide] | 14 nM | 213 nM
CCOc1nccn(-c2ccc(N3C[C@H](CNC(=O)c4ccc(Cl)s4)OC3=O)cc2C)c1=O [Example 18, 5-Chloro-N-({(5S)-3-[4-(3-ethoxy-2-oxopyrazin-1(2H)-yl)-3-methylphenyl]-2-oxo-1,3-oxazolidin-5-yl}methyl)thiophene-2-carboxamide] | 502 nM | 319 nM
O=C(NC[C@H]1CN(c2ccc(N3CCCN(CCO)C3=O)c(C(F)(F)F)c2)C(=O)O1)c1ccc(Cl)s1 [Example 38, 5-Chloro-N-{[(5S)-3-{4-[3-(2-hydroxyethyl)-2-oxotetrahydropyrimidin-1(2H)-yl]-3-(trifluoro-methyl)phenyl}-2-oxo-1,3-oxazolidin-5-yl]methyl}thiophene-2-carboxamide] |  | 252 nM

More lines, main results first:

IC50 [2] | SMILES | IC50 [1]
8 nM | CCCc1cc(N2C[C@H](CNC(=O)c3ccc(Cl)s3)OC2=O)ccc1-n1ccccc1=O [Example 19] | 361 nM
54 nM | COCc1cc(N2C[C@H](CNC(=O)c3ccc(Cl)s3)OC2=O)ccc1N1CCCCC1=O [Example 27, 5-Chloro-N-({(5S)-3-[3-(methoxymethyl)-4-(2-oxopiperidin-1-yl)phenyl]-2-oxo-1,3-oxazolidin-5-yl}methyl)thiophene-2-carboxamide] | 39 nM
34 nM | O=C(NC[C@H]1CN(c2ccc(N3CCOCCC3=O)c(C3CC3)c2)C(=O)O1)c1ccc(Cl)s1 [Example 30, 5-Chloro-N-({(5S)-3-[3-cyclopropyl-4-(5-oxo-1,4-oxazepan-4-yl)phenyl]-2-oxo-1,3-oxazolidin-5-yl}methyl)thiophene-2-carboxamide] | 25 nM
151 nM | CC(C)c1cc(N2C[C@H](CNC(=O)c3ccc(Cl)s3)OC2=O)ccc1N1CCCNC1=O [Example 32, 5-Chloro-N-({(5S)-3-[3-isopropyl-4-(2-oxotetrahydropyrimidin-1(2H)-yl)phenyl]-2-oxo-1,3-oxazolidin-5-yl}methyl)thiophene-2-carboxamide] | 70 nM
390 nM | COc1cc(N2C[C@H](CNC(=O)c3ccc(Cl)s3)OC2=O)ccc1N1CCCN(C)C1=O [Example 35, 5-Chloro-N-({(5S)-3-[3-methoxy-4-(3-methyl-2-oxotetrahydropyrimidin-1(2H)-yl)phenyl]-2-oxo-1,3-oxazolidin-5-yl}methyl)thiophene-2-carboxamide] | 552 nM

— patent publication US8198267B2, “Substituted oxazolidinones and their use” (Bayer Intellectual Property GmbH, priority 2007, dated 2012)
